Values of other authors, collected in patent publication US10406232B2, “Oral delivery compositions for treating dermatitis disorders in mammals” (Vets Plus, Inc., priority 2015, dated 2019).

System: dendritic cells (DCs)
Details: through sequential p38 MAP kinase phosphorylation and caspase 3-activation

CC(C)[C@]12O[C@H]1[C@@H]1O[C@]13[C@]1(O[C@H]1C[C@H]1C4=C(CC[C@@]13C)C(=O)OC4)[C@@H]2O [triptolide]
concentration that induces apoptosis of DCs: ≥ 20 ng/mL
